Experimental data from US10099993B2, “Metabotropic glutamate receptor positive allosteric modulators (PAMS) and uses thereof” (Sanford-Burnham Medical Research Institute, priority 2014, dated 2018).

Columns and labels:
mGlu2 = mGlu2 (Rattus norvegicus (Rat), UniProt P31421); assay: mGlu2 GIRK thallium flux assay; settings: for Emax: read-out: mGlu2 PAM Max; for EC50: read-out: mGlu2 PAM EC50, PAM mode, test compound, then EC20 glutamate […] later in the presence of thallium, mean ± SEM, at least three experiments;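 as to all read-outs here: Cell-based assay, rate of fluorescence rise right after thallium plus agonist addition read on a kinetic imaging plate reader, normalized to vehicle and maximal agonist control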
mGlu3 = mGlu3 (Rattus norvegicus (Rat), UniProt P31422); assay: mGlu3 GIRK thallium flux assay; settings: for Emax: read-out: mGlu3 PAM Max; for EC50: read-out: mGlu3 PAM EC50, PAM mode, test compound, then EC20 glutamate […] later in the presence of thallium, mean ± SEM;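 as to all read-outs here: kinetic fluorescence slope read shortly after thallium plus agonist addition, scaled between vehicle and maximal agonist control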
mGlu3, sequence (P31422 23-879): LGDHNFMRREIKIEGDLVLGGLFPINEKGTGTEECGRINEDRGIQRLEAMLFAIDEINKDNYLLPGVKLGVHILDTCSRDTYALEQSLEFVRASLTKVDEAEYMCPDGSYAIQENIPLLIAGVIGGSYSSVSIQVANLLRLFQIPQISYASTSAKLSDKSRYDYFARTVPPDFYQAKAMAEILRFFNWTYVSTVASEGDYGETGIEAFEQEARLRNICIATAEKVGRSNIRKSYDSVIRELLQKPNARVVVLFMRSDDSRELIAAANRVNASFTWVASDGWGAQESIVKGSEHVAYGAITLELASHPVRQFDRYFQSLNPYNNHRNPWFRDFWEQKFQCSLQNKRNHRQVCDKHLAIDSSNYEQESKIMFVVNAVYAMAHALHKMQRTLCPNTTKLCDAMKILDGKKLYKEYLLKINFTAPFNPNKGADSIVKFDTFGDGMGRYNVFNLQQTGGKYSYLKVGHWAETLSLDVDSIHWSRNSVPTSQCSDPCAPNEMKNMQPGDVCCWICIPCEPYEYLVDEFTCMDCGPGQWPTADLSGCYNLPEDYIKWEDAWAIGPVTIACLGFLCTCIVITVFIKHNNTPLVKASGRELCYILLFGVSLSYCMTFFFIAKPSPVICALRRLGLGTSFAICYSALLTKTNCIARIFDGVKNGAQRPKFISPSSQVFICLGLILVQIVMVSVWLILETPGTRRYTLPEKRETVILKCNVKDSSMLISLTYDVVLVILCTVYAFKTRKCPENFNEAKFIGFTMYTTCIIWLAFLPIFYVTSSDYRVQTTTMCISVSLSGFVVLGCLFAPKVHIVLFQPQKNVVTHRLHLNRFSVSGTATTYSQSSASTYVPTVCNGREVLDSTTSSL

mGlu2, sequence (P31421 19-872): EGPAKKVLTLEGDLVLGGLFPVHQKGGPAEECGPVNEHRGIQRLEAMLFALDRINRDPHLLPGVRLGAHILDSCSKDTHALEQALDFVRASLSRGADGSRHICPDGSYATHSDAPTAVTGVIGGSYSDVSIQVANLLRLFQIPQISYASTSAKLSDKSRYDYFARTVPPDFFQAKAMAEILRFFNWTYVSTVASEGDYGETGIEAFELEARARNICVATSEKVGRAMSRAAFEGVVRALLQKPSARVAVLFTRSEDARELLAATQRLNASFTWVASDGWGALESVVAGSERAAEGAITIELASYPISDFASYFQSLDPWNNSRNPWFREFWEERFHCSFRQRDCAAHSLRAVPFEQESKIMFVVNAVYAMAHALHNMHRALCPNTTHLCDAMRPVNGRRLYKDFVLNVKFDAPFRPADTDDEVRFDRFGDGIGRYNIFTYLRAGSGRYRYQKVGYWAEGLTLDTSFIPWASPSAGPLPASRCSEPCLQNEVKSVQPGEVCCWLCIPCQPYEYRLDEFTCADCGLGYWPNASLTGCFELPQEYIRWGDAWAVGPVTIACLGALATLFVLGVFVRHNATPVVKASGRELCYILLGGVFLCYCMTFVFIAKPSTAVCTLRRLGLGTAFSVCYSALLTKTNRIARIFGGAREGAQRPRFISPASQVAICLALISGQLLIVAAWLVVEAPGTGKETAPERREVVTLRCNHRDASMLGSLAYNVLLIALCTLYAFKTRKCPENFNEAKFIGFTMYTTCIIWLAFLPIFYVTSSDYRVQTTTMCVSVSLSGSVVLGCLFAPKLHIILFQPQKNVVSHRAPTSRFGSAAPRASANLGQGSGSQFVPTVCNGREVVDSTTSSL

SMILES | Emax (mGlu2) [%] | Emax (mGlu3) [%] | EC50 (mGlu2) [nM] | EC50 (mGlu3) [µM]
CC(C)(C)CC(=O)c1ccc(OCc2cccc(-c3cccc(C(=O)O)c3)c2)c(Br)c1O [Compound 193, 3′-((2-Bromo-4-(3,3-dimethylbutanoyl)-3-hydroxyphenoxy)methyl)-[1,1′-biphenyl]-3-carboxylic acid] | 79.5 ± 20.8 | 74 ± 9.5 |  | 
Cc1c(OCCCCOc2ccccn2)ccc(C(=O)CC2CCCC2)c1C [Compound 194] |  |  | > 10000 | > 30
Cc1c(OCCCCOc2ccc(C#N)cc2)ccc(C(=O)CC2CCCC2)c1C [compound 76] |  |  | > 30000 | > 30
Cc1c(OCCCCOc2ccc(C#N)cc2)ccc(C(=O)CC(C)C)c1C [compound 77] |  |  | > 30000 | > 30
COC(=O)CCc1cc(OCCCCOc2ccc(C(=O)CC(C)C)c(O)c2C)ccc1O [compound 85] |  |  | > 10000 | > 30
COC(=O)CCc1cc(OCCCCOc2ccc(C(=O)CC3CCCC3)c(O)c2C)ccc1O [compound 86] |  |  | > 10000 | > 30
COc1ccc(B2OC(C)(C)C(C)(C)O2)cc1OCCCCOc1ccc(C(=O)CC(C)(C)C)c(O)c1C [compound 87, 1-(2-Hydroxy-4-(4-(2-methoxy-5-(4,4,5,5-tetramethyl-1,3,2-dioxaborolan-2-yl)phenoxy)butoxy)-3-methylphenyl)-3,3-dimethylbutan-1-one] | 49.5 ± 3.5 | 24.9 ± 9.6 |  | 
COc1cc(C(=O)NO)ccc1OCCCCOc1ccc(C(=O)CC(C)(C)C)c(O)c1C [compound 88, 4-(4-(4-(3,3-Dimethylbutanoyl)-3-hydroxy-2-methylphenoxy)butoxy)-N-hydroxy-3-methoxybenzamide] | 86.4 ± 2.6 | 53.5 ± 10.6 | 2420 ± 278 | 5.46 ± 0.184
CONC(=O)c1ccc(OC)c(OCCCCOc2ccc(C(=O)CC(C)(C)C)c(O)c2C)c1 [compound 90, 3-(4-(4-(3,3-Dimethylbutanoyl)-3-hydroxy-2-methylphenoxy)butoxy)-N,4-dimethoxybenzamide] | 82.4 ± 3.4 | 78.7 ± 6.2 | 3890 ± 317 | 6.6 ± 1.45
COc1ccc(C#N)cc1OCCCCOc1ccc(C(=O)CC(C)(C)C)c(O)c1C [compound 91, 3-(4-(4-(3,3-Dimethylbutanoyl)-3-hydroxy-2-methylphenoxy)butoxy)-4-methoxybenzonitrile] | 48.2 ± 7.4 | 33.7 ± 7.4 | > 10000 | > 30
COc1ccc(-c2nnn[nH]2)cc1OCCCCOc1ccc(C(=O)CC(C)(C)C)c(O)c1C [compound 92, 1-(2-Hydroxy-4-(4-(2-methoxy-5-(1H-tetrazol-5-yl)phenoxy)butoxy)-3-methylphenyl)-3,3-dimethylbutan-1-one] | 91.2 ± 1.1 | 96.7 ± 4 |  | 
COc1ccc(C(=O)NS(C)(=O)=O)cc1OCCCCOc1ccc(C(=O)CC(C)(C)C)c(O)c1C [compound 93, 3-(4-(4-(3,3-Dimethylbutanoyl)-3-hydroxy-2-methylphenoxy)butoxy)-4-methoxy-N-(methylsulfonyl)benzamide] | 98.1 ± 1.1 | 110 ± 1.3 | 250 ± 55 | 0.265 ± 0.05
Cc1c(OCCCCOc2ccc3c(c2)B(O)OC3)ccc(C(=O)CC(C)(C)C)c1O [compound 94, 1-(2-Hydroxy-4-(4-((1-hydroxy-1,3-dihydrobenzo [c][1,2]oxaborol-6-yl)oxy)butoxy)-3-methylphenyl)-3,3-dimethylbutan-1-one] | 83.9 ± 3.4 | 94 ± 3.8 |  | 
COc1ccc(B(O)O)cc1OCCCCOc1ccc(C(=O)CC(C)(C)C)c(O)c1C [compound 95, (3-(4-(4-(3,3-Dimethylbutanoyl)-3-hydroxy-2-methylphenoxy)butoxy)-4-methoxyphenyl)boronic acid] | 27.5 ± 2.7 | 26.2 ± 11.7 | 3010 ± 988 | > 30
COc1ccc(C(=O)O)cc1OCCCCOc1ccc(C(=O)CCC(C)(C)C)c(O)c1C [compound 96, 3-(4-(4-(4,4-Dimethylpentanoyl)-3-hydroxy-2-methylphenoxy)butoxy)-4-methoxybenzoic acid] | 88.6 ± 0.9 | 95.3 ± 5 |  | 
COc1ccc(/C(N)=N/O)cc1OCCCCOc1ccc(C(=O)CC(C)(C)C)c(O)c1C [compound 97, (Z)-3-(4-(4-(3,3-Dimethylbutanoyl)-3-hydroxy-2-methylphenoxy)butoxy)-N′-hydroxy-4-methoxybenzimidamide] | 57.2 ± 1.4 | 24.4 ± 4.7 | > 10000 | > 30
COc1ccc(-c2noc(=O)[nH]2)cc1OCCCCOc1ccc(C(=O)CC(C)(C)C)c(O)c1C [compound 98, 3-(3-(4-(4-(3,3-Dimethylbutanoyl)-3-hydroxy-2-methylphenoxy)butoxy)-4-methoxyphenyl)-1,2,4-oxadiazol-5(4H)-one] | 101 ± 2.9 | 102 ± 4.7 | 681 ± 90 | 1.23 ± 0.185
COc1ccc(-c2noc(=S)[nH]2)cc1OCCCCOc1ccc(C(=O)CC(C)(C)C)c(O)c1C [compound 99, 1-(2-Hydroxy-4-(4-(2-methoxy-5-(5-thioxo-4,5-dihydro-1,2,4-oxadiazol-3-yl)phenoxy)butoxy)-3-methylphenyl)-3,3-dimethylbutan-1-one] | 81 | 63.6 ± 5 | 1040 ± 70 | 1.15 ± 0.307
COc1ccc(-c2nsc(=O)[nH]2)cc1OCCCCOc1ccc(C(=O)CC(C)(C)C)c(O)c1C [compound 100, 3-(3-(4-(4-(3,3-Dimethylbutanoyl)-3-hydroxy-2-methylphenoxy)butoxy)-4-methoxyphenyl)-1,2,4-thiadiazol-5(4H)-one] | 68.1 ± 0.9 | 33.9 ± 10.1 | 2220 ± 709 | > 30
COc1ccc(C(=O)N2CCOCC2)cc1OCCCCOc1ccc(C(=O)CC(C)(C)C)c(O)c1C [compound 101, 1-(2-Hydroxy-4-(4-(2-methoxy-5-(morpholine-4-carbonyl)phenoxy)butoxy)-3-methylphenyl)-3,3-dimethylbutan-1-one] | 113 ± 1.2 | 132 ± 5 | 875 ± 3 | 0.741 ± 0.006
CNC(=O)c1ccc(OC)c(OCCCCOc2ccc(C(=O)CC(C)(C)C)c(O)c2C)c1 [compound 102, 3-(4-(4-(3,3-Dimethylbutanoyl)-3-hydroxy-2-methylphenoxy)butoxy)-4-methoxy-N-methylbenzamide] | 70.9 ± 2.3 | 39.2 ± 5.2 | 5160 ± 82 | > 10
CCN(CC)C(=O)c1ccc(OC)c(OCCCCOc2ccc(C(=O)CC(C)(C)C)c(O)c2C)c1 [compound 103, 3-(4-(4-(3,3-Dimethylbutanoyl)-3-hydroxy-2-methylphenoxy)butoxy)-N,N-diethyl-4-methoxybenzamide] | 96.4 ± 2.1 | 111 ± 3.4 | 608 ± 10 | 0.497 ± 0.006
COc1ccc(C(=O)Nc2ccccc2)cc1OCCCCOc1ccc(C(=O)CC(C)(C)C)c(O)c1C [compound 104, 3-(4-(4-(3,3-Dimethylbutanoyl)-3-hydroxy-2-methylphenoxy)butoxy)-4-methoxy-N-phenylbenzamide] | 23.1 ± 1.4 | 27 ± 3.4 |  | 
COc1ccc(C(=O)N2CCNCC2)cc1OCCCCOc1ccc(C(=O)CC(C)(C)C)c(O)c1C [compound 105, 1-(2-Hydroxy-4-(4-(2-methoxy-5-(piperazine-1-carbonyl)phenoxy)butoxy)-3-methylphenyl)-3,3-dimethylbutan-1-one] | 67.4 ± 1.9 | 49.7 ± 3.9 | > 10000 | > 10
